Columns and labels:
[1] = target: T1, Nucleotide-binding oligomerization domain-containing protein 1 (Mus musculus) (UniProt Q8BHB0); test: Antagonist activity at mouse NOD1 expressed in HEK-Blue cells assessed as decrease in SEAP secretion at 5 uM incubated for 3 hrs followed by C12-iE-DAP stimulation for 20 hrs by spectrophotometry relative to control; type: cell-based
T1 sequence (whole entry): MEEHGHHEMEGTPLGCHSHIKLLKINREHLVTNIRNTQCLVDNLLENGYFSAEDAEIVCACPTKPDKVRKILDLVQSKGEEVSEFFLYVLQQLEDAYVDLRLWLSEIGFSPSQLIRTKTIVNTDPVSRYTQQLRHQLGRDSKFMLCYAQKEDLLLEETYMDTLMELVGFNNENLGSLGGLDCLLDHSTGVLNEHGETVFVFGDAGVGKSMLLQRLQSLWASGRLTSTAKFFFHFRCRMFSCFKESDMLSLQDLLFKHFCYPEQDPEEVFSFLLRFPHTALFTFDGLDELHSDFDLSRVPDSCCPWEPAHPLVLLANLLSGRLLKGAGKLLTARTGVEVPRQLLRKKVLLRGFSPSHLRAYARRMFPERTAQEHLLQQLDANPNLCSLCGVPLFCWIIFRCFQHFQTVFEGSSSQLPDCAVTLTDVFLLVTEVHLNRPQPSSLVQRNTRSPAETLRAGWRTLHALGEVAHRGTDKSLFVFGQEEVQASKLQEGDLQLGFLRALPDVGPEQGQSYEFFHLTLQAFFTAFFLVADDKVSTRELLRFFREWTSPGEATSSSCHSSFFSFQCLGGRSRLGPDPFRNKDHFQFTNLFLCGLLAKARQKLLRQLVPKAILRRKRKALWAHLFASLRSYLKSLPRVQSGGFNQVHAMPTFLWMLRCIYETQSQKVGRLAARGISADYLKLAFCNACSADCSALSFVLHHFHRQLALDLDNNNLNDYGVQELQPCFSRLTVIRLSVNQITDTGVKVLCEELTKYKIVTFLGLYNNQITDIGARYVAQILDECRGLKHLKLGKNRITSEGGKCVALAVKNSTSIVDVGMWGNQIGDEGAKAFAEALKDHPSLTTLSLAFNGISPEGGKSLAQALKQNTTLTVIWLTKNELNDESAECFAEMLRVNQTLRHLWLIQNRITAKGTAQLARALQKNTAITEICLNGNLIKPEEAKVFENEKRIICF

[2] = target: T2, Nucleotide-binding oligomerization domain-containing protein 1 (Homo sapiens, UniProt Q9Y239); test: Antagonist activity at human NOD1 expressed in HEK-Blue cells assessed as decrease in SEAP secretion incubated for 3 hrs followed by C12-iE-DAP stimulation for 20 hrs by spectrophotometry; type: cell-based, HEK-Blue hNOD1
T2 sequence (Q9Y239 whole entry): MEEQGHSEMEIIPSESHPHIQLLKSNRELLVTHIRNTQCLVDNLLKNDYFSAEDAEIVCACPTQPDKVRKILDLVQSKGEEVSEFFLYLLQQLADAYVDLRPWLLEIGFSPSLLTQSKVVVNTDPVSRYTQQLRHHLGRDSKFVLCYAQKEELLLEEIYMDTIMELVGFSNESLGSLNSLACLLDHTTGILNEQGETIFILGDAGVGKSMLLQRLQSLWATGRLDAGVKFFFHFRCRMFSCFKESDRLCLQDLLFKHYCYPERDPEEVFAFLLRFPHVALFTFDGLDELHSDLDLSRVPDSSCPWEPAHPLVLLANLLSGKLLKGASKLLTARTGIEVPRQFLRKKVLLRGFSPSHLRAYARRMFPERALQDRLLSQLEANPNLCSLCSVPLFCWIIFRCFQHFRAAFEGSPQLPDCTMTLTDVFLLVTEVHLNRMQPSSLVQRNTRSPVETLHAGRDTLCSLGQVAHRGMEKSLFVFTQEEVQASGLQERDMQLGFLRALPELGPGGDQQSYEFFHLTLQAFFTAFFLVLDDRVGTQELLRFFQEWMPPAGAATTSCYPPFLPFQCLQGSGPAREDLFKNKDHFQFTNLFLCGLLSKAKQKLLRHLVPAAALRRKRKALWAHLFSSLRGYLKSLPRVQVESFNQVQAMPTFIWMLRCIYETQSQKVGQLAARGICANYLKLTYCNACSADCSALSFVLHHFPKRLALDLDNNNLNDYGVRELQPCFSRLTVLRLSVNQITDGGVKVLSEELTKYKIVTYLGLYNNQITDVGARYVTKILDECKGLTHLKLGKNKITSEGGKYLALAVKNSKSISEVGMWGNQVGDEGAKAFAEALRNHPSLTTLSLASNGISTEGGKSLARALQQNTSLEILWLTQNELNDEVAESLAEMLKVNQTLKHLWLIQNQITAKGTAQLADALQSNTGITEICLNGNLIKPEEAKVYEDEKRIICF

[3] = target: T3, Nucleotide-binding oligomerization domain-containing protein 1 (Mus musculus, UniProt Q8BHB0); test: Antagonist activity at mouse NOD1 expressed in HEK-Blue cells assessed as decrease in SEAP secretion incubated for 3 hrs followed by C12-iE-DAP stimulation for 20 hrs by spectrophotometry; type: cell-based, HEK-Blue mNOD1
T3 sequence (Q8BHB0 whole entry): T1 sequence (whole entry)

[4] = target: T1, Nucleotide-binding oligomerization domain-containing protein 1 (Mus musculus); test: Antagonist activity at mouse NOD1 expressed in HEK-Blue cells assessed as decrease in SEAP secretion at 1 uM incubated for 3 hrs followed by C12-iE-DAP stimulation for 20 hrs by spectrophotometry relative to control; type: cell-based
[5] = HEK-Blue mNOD1, filed as antagonist, time 23.0 hrs

SMILES	IC50 [3]	inhibition [4, 5]	also measured
NC(=O)c1nc2ccc(Cl)cc2c(=O)n1-c1ccc(Cl)c(NS(=O)(=O)c2ccccc2F)c1			inhibition [1, 5]: 48.2%
Cc1nc2ccc(Cl)cc2c(=O)n1-c1ccc(Cl)c(S(=O)(=O)Nc2ccccc2F)c1			inhibition ([1]; HEK-Blue mNOD1, time 23.0 hrs): 21.1%
Nc1ccc(Cl)cc1C(=O)Nc1ccc(Cl)c(NS(=O)(=O)c2ccccc2F)c1			inhibition ([1]; HEK-Blue mNOD1, time 23.0 hrs): 32.9%
O=c1c2cc([N+](=O)[O-])ccc2nc(Cl)n1-c1ccc(Cl)c(NS(=O)(=O)c2ccccc2F)c1	0.86 µM	52.1%	IC50 [2]: 0.0091 µM
Cc1nc2ccc(Cl)cc2c(=O)n1CCCNS(=O)(=O)c1ccccc1F			inhibition ([1]; HEK-Blue mNOD1, time 23.0 hrs): < 10%
Cc1nc2ccc(Cl)cc2c(=O)n1-c1ccc(Cl)c(C(=O)O)c1			inhibition ([1]; HEK-Blue mNOD1, time 23.0 hrs): < 10%
N#Cc1ccccc1S(=O)(=O)Nc1cc(-n2c(Cl)nc3cnc(Cl)cc3c2=O)ccc1Cl	0.121 µM	86.3%	IC50 [2]: 0.0012 µM
C=CS(=O)(=O)Nc1cc(-n2c(Cl)nc3cnc(Cl)cc3c2=O)ccc1Cl	1.15 µM	70.2%	
O=c1c2cc(Cl)ccc2nc(NCCCN2CCOCC2)n1-c1ccc(Cl)c(NS(=O)(=O)c2ccccc2F)c1			IC50 [2]: 0.032 µM; inhibition [1, 5]: 46.5%
CS(=O)(=O)c1ccc2nc(Cl)n(-c3ccc(Cl)c(NS(=O)(=O)c4ccc([N+](=O)[O-])cc4F)c3)c(=O)c2c1	0.199 µM	82.3%	
O=c1c2ccncc2nc(Cl)n1-c1ccc(Cl)c(NS(=O)(=O)c2ccc([N+](=O)[O-])cc2F)c1	0.133 µM		
Cc1nc2ccc(Cl)cc2c(=O)n1-c1ccc(Cl)c(C(=O)N2Cc3ccccc3S2(=O)=O)c1			inhibition ([1]; HEK-Blue mNOD1, time 23.0 hrs): < 10%
O=c1c2ccncc2nc(Cl)n1-c1ccc(Cl)c(NS(=O)(=O)c2cc(F)c(F)cc2F)c1	0.159 µM	81.8%	IC50 [2]: 0.0075 µM
O=c1c2ccncc2nc(Cl)n1-c1ccc(Cl)c(NS(=O)(=O)c2cc(F)ccc2F)c1	0.165 µM	81.8%	IC50 [2]: 0.0084 µM
O=c1c2cc(C(F)(F)F)ccc2nc(Cl)n1-c1ccc(Cl)c(NS(=O)(=O)c2c(F)cccc2F)c1	0.404 µM	65.3%	
O=c1c2cc(OC(F)(F)F)ccc2nc(Cl)n1-c1ccc(Cl)c(NS(=O)(=O)c2c(F)cccc2F)c1	2.65 µM		inhibition ([4]; HEK-Blue mNOD1, time 23.0 hrs): 36.5%
O=c1c2cc(Cl)ncc2nc(Cl)n1-c1ccc(Cl)c(NS(=O)(=O)c2ccc(Cl)s2)c1	0.3 µM	76.5%	
O=c1c2ccccc2nc(Cl)n1-c1ccc(Cl)c(NS(=O)(=O)c2ccccc2F)c1			inhibition ([4]; HEK-Blue mNOD1, time 23.0 hrs): < 10%
CS(=O)(=O)c1ccc2nc(Cl)n(-c3ccc(Cl)c(NS(=O)(=O)c4ccccc4F)c3)c(=O)c2c1	0.11 µM	88.9%	IC50 [2]: 0.0044 µM
Cc1nc2ccc(Cl)cc2c(=O)n1-c1ccc(Cl)c(N)c1			inhibition ([1]; HEK-Blue mNOD1, time 23.0 hrs): < 10%
O=c1c2ccncc2nc(Cl)n1-c1ccc(Cl)c(NS(=O)(=O)c2ccc(F)cc2F)c1	0.193 µM	80.5%	
O=c1c2ccncc2nc(C(F)F)n1-c1ccc(Cl)c(NS(=O)(=O)c2ccccc2F)c1			inhibition ([4]; HEK-Blue mNOD1, time 23.0 hrs): 19.1%

SMILES	IC50 [3]	inhibition [4, 5]	also measured
O=c1c2cc(Br)ccc2nc(Cl)n1-c1ccc(Cl)c(NS(=O)(=O)c2ccccc2F)c1		40.5%	IC50 [2]: 0.018 µM
COc1ccc2nc(Cl)n(-c3ccc(Cl)c(NS(=O)(=O)c4ccccc4F)c3)c(=O)c2c1			inhibition ([4]; HEK-Blue mNOD1, time 23.0 hrs): < 10%
O=c1c2cc(Cl)ncc2nc(Cl)n1-c1ccc(Cl)c(NS(=O)(=O)c2ccccc2Cl)c1	0.285 µM		
COc1cc2nc(Cl)n(-c3ccc(Cl)c(NS(=O)(=O)c4ccccc4F)c3)c(=O)c2cc1Cl			inhibition ([4]; HEK-Blue mNOD1, time 23.0 hrs): 39.3%
O=c1c2cc(Cl)ncc2nc(Cl)n1-c1ccc(Cl)c(NS(=O)(=O)N2CCCCC2)c1			IC50 [2]: 0.126 µM; inhibition ([4]; HEK-Blue mNOD1, time 23.0 hrs): 28.7%
O=c1c2cc(-c3cccc(Cl)c3)ccc2nc(Cl)n1-c1ccc(Cl)c(NS(=O)(=O)c2ccccc2F)c1			inhibition ([4]; HEK-Blue mNOD1, time 23.0 hrs): 15.6%
O=c1c2cc(F)c(F)cc2nc(Cl)n1-c1ccc(Cl)c(NS(=O)(=O)c2ccccc2F)c1	1.3 µM	55.3%	
O=c1c2cc(Cl)ncc2nc(Cl)n1-c1ccc(Cl)c(NS(=O)(=O)c2ccc3c(c2)CCO3)c1	0.673 µM		
O=c1c2cc(Cl)ncc2nc(Cl)n1-c1ccc(Cl)c(NS(=O)(=O)c2cccnc2)c1	0.381 µM		
CCOC(=O)c1nc2ccc(Cl)cc2c(=O)n1-c1ccc(Cl)c(NS(=O)(=O)c2ccccc2F)c1			inhibition ([1]; HEK-Blue mNOD1, time 23.0 hrs): 11.4%
N#Cc1ccc2nc(Cl)n(-c3ccc(Cl)c(NS(=O)(=O)c4ccccc4F)c3)c(=O)c2c1	0.117 µM	83.6%	IC50 [2]: 0.0097 µM
O=c1c2ccncc2nc(C(F)(F)F)n1-c1ccc(Cl)c(NS(=O)(=O)c2ccccc2F)c1			inhibition ([4]; HEK-Blue mNOD1, time 23.0 hrs): 7.7%
Cc1noc(C)c1S(=O)(=O)Nc1cc(-n2c(Cl)nc3cnc(Cl)cc3c2=O)ccc1Cl	0.559 µM		
O=c1c2cc(Cl)ncc2nc(Cl)n1-c1ccc(Cl)c(NS(=O)(=O)c2ccc3ncsc3c2)c1	0.132 µM	85.7%	
CC(=O)Nc1ccc(Cl)c(NS(=O)(=O)c2ccccc2F)c1			inhibition ([1]; HEK-Blue mNOD1, time 23.0 hrs): < 10%
Cn1cc(S(=O)(=O)Nc2cc(-n3c(Cl)nc4cnc(Cl)cc4c3=O)ccc2Cl)cn1	0.267 µM	77.6%	IC50 [2]: 0.0031 µM
O=c1c2cc(Cl)ncc2nc(Cl)n1-c1ccc(Cl)c(NS(=O)(=O)c2c(F)cccc2F)c1	0.067 µM	87.5%	IC50 [2]: 0.0013 µM
N[C@@H](CCC(=O)N[C@@H](CSc1nc2cnccc2c(=O)n1-c1ccc(Cl)c(NS(=O)(=O)c2ccccc2F)c1)C(=O)NCC(=O)O)C(=O)O			inhibition ([4]; HEK-Blue mNOD1, time 23.0 hrs): -1%
O=c1c2nc(Cl)cnc2nc(Cl)n1-c1ccc(Cl)c(NS(=O)(=O)c2ccccc2F)c1	1.23 µM		
Cc1nc2ccc(Cl)cc2c(=O)n1NS(=O)(=O)c1ccc(Cl)cc1			inhibition ([1]; HEK-Blue mNOD1, time 23.0 hrs): < 10%
Cc1nc2ccc(Cl)cc2c(=O)n1-c1ccc(Cl)c(NC(=O)c2ccccc2F)c1			inhibition ([1]; HEK-Blue mNOD1, time 23.0 hrs): < 10%
O=c1c2cc(C(F)(F)F)ccc2nc(Cl)n1-c1ccc(Cl)c(NS(=O)(=O)c2ccccc2F)c1	0.624 µM		

From ChEMBL document CHEMBL6074678, “Selectively Antagonizing the NOD1-Mediated Inflammatory Signaling Pathway Mitigates the Gastric Inflammation Induced by Helicobacter pylori Infection” (J Med Chem, 2024)
